Reference: PubChem BioAssay AID248 (DTP/NCI, 2004)
“And” between values parts separate entries of the source, which are not always exact repeats. Equal entries are not always repeated. Toxic doses and inconclusive results are not listed.

Test system: L1210 leukemia ip in BDF1 mice, survival T/C
Assay: NCI In Vivo Anticancer Drug Screen. Data for tumor model L1210 Leukemia (intraperitoneal) in B6D2F1 (BDF1) mice
Details: endpoint: mean survival time, higher = longer survival
How it was run: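 Mice bearing the transplanted tumor received compound or vehicle. Survival of the treated group was divided by that of the vehicle-treated control group to give the ratio.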

[1] = dose: 100.0 mg/kg/injection, schedule: Q04DX002 (ip), vehicle: Klucel (hydroxypropylcellulose) (HPC)
[2] = dose: 200.0 mg/kg/injection, schedule: Q04DX002 (ip), vehicle: Klucel (hydroxypropylcellulose) (HPC)
[3] = dose: 400.0 mg/kg/injection, schedule: Q04DX002 (ip), vehicle: Klucel (hydroxypropylcellulose) (HPC)
[4] = dose: 100.0 mg/kg/injection, schedule: Q01DX001 (ip), vehicle: carboxymethylcellulose (CMC)
[5] = dose: 200.0 mg/kg/injection, schedule: Q01DX001 (ip), vehicle: carboxymethylcellulose (CMC)
[6] = dose: 400.0 mg/kg/injection, schedule: Q01DX001 (ip), vehicle: carboxymethylcellulose (CMC)
[7] = dose: 100.0 mg/kg/injection, schedule: Q01DX009 (ip), vehicle: Klucel (hydroxypropylcellulose) (HPC)
[8] = dose: 100.0 mg/kg/injection, schedule: Q04DX003 (ip), vehicle: Klucel (hydroxypropylcellulose) (HPC)
[9] = dose: 200.0 mg/kg/injection, schedule: Q01DX009 (ip), vehicle: Klucel (hydroxypropylcellulose) (HPC)
[10] = dose: 200.0 mg/kg/injection, schedule: Q04DX003 (ip), vehicle: Klucel (hydroxypropylcellulose) (HPC)
[11] = dose: 400.0 mg/kg/injection, schedule: Q01DX009 (ip), vehicle: Klucel (hydroxypropylcellulose) (HPC)
[12] = dose: 400.0 mg/kg/injection, schedule: Q04DX003 (ip), vehicle: Klucel (hydroxypropylcellulose) (HPC)
[13] = dose: 100.0 mg/kg/injection, schedule: Q04DX003 (ip), vehicle: saline
[14] = dose: 200.0 mg/kg/injection, schedule: Q04DX003 (ip), vehicle: saline
[15] = dose: 400.0 mg/kg/injection, schedule: Q04DX003 (ip), vehicle: saline
[16] = dose: 25.0 mg/kg/injection, schedule: Q01DX009 (ip), vehicle: saline with Tween-80
[17] = dose: 25.0 mg/kg/injection, schedule: Q04DX003 (ip), vehicle: saline with Tween-80
[18] = dose: 50.0 mg/kg/injection, schedule: Q01DX009 (ip), vehicle: saline with Tween-80
[19] = dose: 50.0 mg/kg/injection, schedule: Q04DX003 (ip), vehicle: saline with Tween-80
[20] = dose: 100.0 mg/kg/injection, schedule: Q04DX003 (ip), vehicle: saline with Tween-80
[21] = dose: 100.0 mg/kg/injection, schedule: Q01DX009 (ip), vehicle: saline with Tween-80
[22] = dose: 200.0 mg/kg/injection, schedule: Q01DX009 (ip), vehicle: saline with Tween-80
[23] = dose: 50.0 mg/kg/injection, schedule: Q01DX009 (ip), vehicle: saline

CC(=O)CCCCc1ccccc1
T/C [1]: 88 % of control
T/C [2]: 102 % of control
T/C [3]: 88 % of control

CCCCCCCCCCCCCCCCCC(CCCCCCCCCCCCCCCC)CCCCCCCCCCCCCCCC
T/C [4]: 96 % of control
T/C [5]: 102 % of control
T/C [6]: 91 % of control

O=[N+]([O-])c1ccc(O)c(N=Cc2ccccc2)c1
T/C (dose: 100.0 mg/kg/injection, schedule: Q01DX001 (ip), vehicle: saline): 97 % of control
T/C (dose: 200.0 mg/kg/injection, schedule: Q01DX001 (ip), vehicle: saline): 96 % of control
T/C (dose: 400.0 mg/kg/injection, schedule: Q01DX001 (ip), vehicle: saline): 100 % of control

O=C(NO)C(=O)NCc1ccccc1
T/C [4]: 90 % of control
T/C [5]: 96 % of control
T/C [6]: 96 % of control

CCOC(=O)c1cccs1
T/C [7]: 99 % of control
T/C [8]: 103 % of control
T/C [9]: 95 % of control
T/C [10]: 100 % of control
T/C [11]: 97 % of control
T/C [12]: 105 % of control

CCOC(=O)C1CC[N+](=c2cc(-c3ccc(Cl)cc3)ss2)CC1 (stereo not drawn)
T/C [13]: 95 % of control
T/C [14]: 96 % of control
T/C [15]: 101 % of control

N=C(N)/C(N)=N\C1=NCCN1
T/C [7]: 101 % of control
T/C [8]: 95 % of control
T/C (dose: 178.0 mg/kg/injection, schedule: Q04DX003 (ip), vehicle: Klucel (hydroxypropylcellulose) (HPC)): 97 % of control
T/C [9]: 101 % of control
T/C [10]: 93 % of control
T/C (dose: 266.0 mg/kg/injection, schedule: Q04DX003 (ip), vehicle: Klucel (hydroxypropylcellulose) (HPC)): 92 % of control
T/C [12]: 90 % of control and 92 % of control
T/C (dose: 600.0 mg/kg/injection, schedule: Q04DX003 (ip), vehicle: Klucel (hydroxypropylcellulose) (HPC)): 93 % of control

O=C(Nc1ccc(F)cc1)Oc1ccc(OCc2ccccc2)cc1
T/C [4]: 95 % of control
T/C (dose: 100.0 mg/kg/injection, schedule: Q01DX009 (ip), vehicle: carboxymethylcellulose (CMC)): 99 % of control and 103 % of control
T/C (dose: 100.0 mg/kg/injection, schedule: Q04DX002 (ip), vehicle: carboxymethylcellulose (CMC)): 93 % of control and 98 % of control
T/C [5]: 101 % of control
T/C (dose: 200.0 mg/kg/injection, schedule: Q01DX009 (ip), vehicle: carboxymethylcellulose (CMC)): 95 % of control and 99 % of control
T/C (dose: 200.0 mg/kg/injection, schedule: Q04DX002 (ip), vehicle: carboxymethylcellulose (CMC)): 98 % of control and 100 % of control
T/C [6]: 101 % of control
T/C (dose: 400.0 mg/kg/injection, schedule: Q01DX009 (ip), vehicle: carboxymethylcellulose (CMC)): 95 % of control and 91 % of control
T/C (dose: 400.0 mg/kg/injection, schedule: Q04DX002 (ip), vehicle: carboxymethylcellulose (CMC)): 96 % of control and 100 % of control

CN(C)Cc1cc(O)c(CN(C)C)cc1O
T/C [16]: 110 % of control
T/C [17]: 88 % of control
T/C [18]: 103 % of control
T/C [19]: 93 % of control
T/C [20]: 96 % of control

CC1(C(=O)O)OCCO1
T/C [21]: 94 % of control
T/C [22]: 90 % of control

Cc1cccc(C)c1NC(=O)Oc1ccccc1C(N)=O
T/C [7]: 97 % of control
T/C [8]: 98 % of control
T/C [9]: 100 % of control
T/C [10]: 104 % of control
T/C [12]: 94 % of control

NC(=O)c1ccccc1C(N)=O
T/C [7]: 97 % of control
T/C [8]: 100 % of control
T/C [9]: 98 % of control
T/C [10]: 102 % of control
T/C [11]: 93 % of control
T/C [12]: 100 % of control

O=C(CCN1CCCC1)c1ccc(F)cc1
T/C (dose: 25.0 mg/kg/injection, schedule: Q01DX009 (ip), vehicle: saline): 109 % of control
T/C [23]: 115 % of control

CCCCCCCCCCCCCCCCCC(=O)OC1C(CO)OC2C1Oc1nc(=N)ccn12 (stereo not drawn)
T/C (dose: 12.5 mg/kg/injection, schedule: Q01DX009 (ip), vehicle: other): 165 % of control
T/C (dose: 25.0 mg/kg/injection, schedule: Q01DX009 (ip), vehicle: other): 190 % of control
T/C (dose: 50.0 mg/kg/injection, schedule: Q01DX009 (ip), vehicle: other): 235 % of control
T/C (dose: 100.0 mg/kg/injection, schedule: Q01DX009 (ip), vehicle: other): 283 % of control
T/C (dose: 200.0 mg/kg/injection, schedule: Q01DX009 (ip), vehicle: other): 120 % of control

Cc1cc(C(=O)O)c(CN2C(=O)c3ccccc3C2=O)c(=O)n1C
T/C (dose: 100.0 mg/kg/injection, schedule: Q01DX001 (ip), vehicle: saline with Tween-80): 105 % of control
T/C (dose: 100.0 mg/kg/injection, schedule: Q04DX003 (ip), vehicle: water): 102 % of control
T/C (dose: 200.0 mg/kg/injection, schedule: Q01DX001 (ip), vehicle: saline with Tween-80): 100 % of control
T/C (dose: 200.0 mg/kg/injection, schedule: Q04DX003 (ip), vehicle: water): 100 % of control
T/C (dose: 400.0 mg/kg/injection, schedule: Q01DX001 (ip), vehicle: saline with Tween-80): 100 % of control
T/C (dose: 400.0 mg/kg/injection, schedule: Q04DX003 (ip), vehicle: water): 104 % of control

CC(=O)OCc1ccc(-n2c(C(F)(F)F)nc3nc(Cl)c(Cl)nc32)o1
T/C [23]: 97 % of control
T/C (dose: 100.0 mg/kg/injection, schedule: Q01DX009 (ip), vehicle: saline): 102 % of control
T/C [13]: 105 % of control
T/C (dose: 200.0 mg/kg/injection, schedule: Q01DX009 (ip), vehicle: saline): 96 % of control
T/C [14]: 100 % of control
T/C (dose: 400.0 mg/kg/injection, schedule: Q01DX009 (ip), vehicle: saline): 97 % of control
T/C [15]: 88 % of control

COc1cccc(CCC(=O)c2ccccc2)c1
T/C [1]: 106 % of control
T/C [2]: 90 % of control
T/C [3]: 94 % of control

CCOC(=O)c1ccc(NS(=O)(=O)c2ccc(NC(C)=O)cc2)cc1
T/C [1]: 88 % of control
T/C [2]: 94 % of control
T/C [3]: 103 % of control

CC(=O)OCC1OC(OC2C(COC(C)=O)OC(Sc3ccccc3)C(OC(C)=O)C2OC(C)=O)C(OC(C)=O)C(OC(C)=O)C1OC(C)=O (stereo not drawn)
T/C (dose: 3.13 mg/kg/injection, schedule: Q01DX009 (ip), vehicle: saline with Tween-80): 89 % of control
T/C (dose: 12.5 mg/kg/injection, schedule: Q01DX009 (ip), vehicle: saline with Tween-80): 89 % of control
T/C [16]: 90 % of control
T/C [17]: 95 % of control
T/C [18]: 90 % of control
T/C [19]: 95 % of control
T/C [21]: 88 % of control
T/C [20]: 92 % of control
T/C [22]: 94 % of control
T/C (dose: 200.0 mg/kg/injection, schedule: Q04DX003 (ip), vehicle: saline with Tween-80): 91 % of control
T/C (dose: 400.0 mg/kg/injection, schedule: Q04DX003 (ip), vehicle: saline with Tween-80): 87 % of control

CCOC(=O)NC1Cc2cc(C)cc(C)c21 (stereo not drawn)
T/C (dose: 10.0 mg/kg/injection, schedule: Q04DX002 (ip), vehicle: Klucel (hydroxypropylcellulose) (HPC)): 120 % of control
T/C (dose: 20.0 mg/kg/injection, schedule: Q04DX002 (ip), vehicle: Klucel (hydroxypropylcellulose) (HPC)): 100 % of control
T/C (dose: 40.0 mg/kg/injection, schedule: Q04DX002 (ip), vehicle: Klucel (hydroxypropylcellulose) (HPC)): 103 % of control

C=CCN(C(=O)OCC)c1ccccc1
T/C [7]: 110 % of control
T/C [8]: 95 % of control
T/C [9]: 108 % of control
T/C [10]: 106 % of control
T/C [11]: 93 % of control
T/C [12]: 106 % of control

CC12C3C(=O)NC45CCCC41C5(c1ccccc1)C32c1ccccc1 (stereo not drawn)
T/C (dose: 100.0 mg/kg/injection, schedule: Q01DX001 (ip), vehicle: Klucel (hydroxypropylcellulose) (HPC)): 96 % of control
T/C (dose: 200.0 mg/kg/injection, schedule: Q01DX001 (ip), vehicle: Klucel (hydroxypropylcellulose) (HPC)): 96 % of control
T/C (dose: 400.0 mg/kg/injection, schedule: Q01DX001 (ip), vehicle: Klucel (hydroxypropylcellulose) (HPC)): 94 % of control

O=C(Nc1ccc([N+](=O)[O-])cc1Cl)Sc1ccccc1O
T/C [21]: 104 % of control
T/C [22]: 104 % of control
T/C (dose: 400.0 mg/kg/injection, schedule: Q01DX009 (ip), vehicle: saline with Tween-80): 86 % of control
